# According to patent US20110212100A1, “METHODS FOR MODULATING DEVELOPMENT AND EXPANSION OF IL-17 EXPRESSING CELLS” (priority 2007, published 2011):
# What was measured:
# Jurkat T cells = experiment: Apoptosis of Jurkat T cells (Annexin V / PI); format: cell-based; settings: 100 nM HF, 30 hours
# Method: The non-specific cytoxicity of HF in both normal and transformed T-cells at high doses was evaluated. Anti-CD3/anti-CD28 activated primary T cells were harvested 6 days after activation and cultured in the presence of IL-2 with or without HF (100 nM). As a positive control, some T cells were cultured without IL-2 to induce apoptosis (FIG. 3A). Jurkat T cells, a transformed T cell leukemia line, were cultured in complete medium with or without HF (100 nM) as indicated (FIG. 3B). Both primary and Jurkat T cells were cultured for 30 hours and programmed cell death, i.e. apoptosis, was determined by Annexin V staining and propidium iodide (PI) uptake and cells were analyzed by flow cytometry. The percent of apoptotic T cells at each time point was plotted and was defined as Annexin V^+ PI^−. […] In further experiments, titrating amounts of HF were added to primary T cells and apoptosis was determine as above at the indicated time points. At 100 nM HF, but not 30 nM or lower, generalized T-cell apoptosis was observed (FIG. 3C).
# STAT3 phosphorylation = experiment: Kinetics of STAT3 phosphorylation in developing Th17 cells; format: cell-based, mouse
# Method: FIG. 11A is a series of graphs depicting representative histograms displaying the kinetics of STAT3 phosphorylation in developing Th17 cells treated with or without HF. Resting naïve T cells (shaded peak), T cells activated in the presence of TGFβ plus IL-6 (TGFβ/IL-6) treated with 10 nM MAZ1310, TGFβ/IL-6-activated T cells treated with 5 nM HF, TGFβ/IL-6-activated T cells treated with 10 nM HF. T cells were fixed at the indicated times and intracellular phospho-STAT3 staining was performed.
# FACS analyses and sorting: All cell surface staining was performed in FACS buffer (PBS/2% FCS/0.1% NaN3) and antibodies were incubated with cells on ice for 20-30 minutes. Cells were washed with FACS buffer and fixed with FACS buffer plus 1% paraformaldehyde prior to data acquisition. For phospho-STAT3 intracellular staining, stimulated T cells cultured with or without TGF plus IL-6 for the indicated times were harvested on ice and fixed in PBS plus 2% paraformaldehyde for 10 minutes at 37° C. Fixed cells were washed twice with staining buffer (PBS/1% BSA/0.1% NaN3) and then permeabilized with perm buffer III (BD Pharmingen) on ice for 30 minutes. […] All FACS data was acquired on a FACSCalibur flow cytometer (BD Pharmingen) and analyzed using FlowJo software (Treestar, Inc., Ashland, Oreg.). […]
# [1] = test system: AAR pathway in splenocytes; experiment: In vivo activation of the AAR pathway in splenocytes of HF-injected mice; parameters: species or system C57B/6 mice; settings: 2.5 μg HF i.p., 6 hours post injection
# Method: FIG. 20A is a graph depicting splenocytes from control- and HF-treated mice. C57B/6 mice were injected i.p. with vehicle (DMSO) or 2.5 μg HF. Spleens were harvested 6 hours post injection, red blood cells were lysed and total splenocytes were counted. Data are presented as mean cell counts±SD from 2 mice per group.
# FIG. 20C is a graph depicting eIF2α expression in control- and HF-treated mice. Splenocytes from mice injected with DMSO or HF as above were harvested 6 hours post injection. Red blood cells were lysed and immunoblotting was performed on whole cell extracts for phosphorylated or total eIF2α as indicated.
# FIG. 20D is a graph depicting the results of quantitative real-time PCR (qPCR) experiments performed for AAR-associated gene expression (Asns, Gpt2, eIF4Ebp1) using cDNA generated from splenocytes of mice injected with DMSO or HF as above. Expression of AAR-associated genes were normalized to Hprt levels and data are presented as mean relative expression from duplicate samples±SD.
# Studies were conducted to evaluate the effect of HF treatment in mice.
# [2] = test system: Xenopus feeding stage tadpoles; experiment: Toxicity in Xenopus feeding stage tadpoles; format: in vivo; settings: 400 nM HF, 7 days
# Method: At concentrations over 80 nM, HF has a variety of non-specific effects on both T-cells and fibroblasts. […] At the recommended tolerated dose for chronic treatment (0.5 mg/day), plasma levels of HF were ˜0.5 ng/ml (1 nM). (de.Jonge et al., Eur J Cancer, vol. 42(12):1768-74 (2006)).
# [3] = test system: anti-CD3 activated human peripheral blood T cells; settings: cited from earlier work
# fibrosis = settings: Pines et al.; cited from earlier work
compound,measurement,setting,value
"O=C(CC1NCCCC1O)Cn1cnc2cc(Br)c(Cl)cc2c1=O (racemic) [HF, 7-bromo-6-chloro-3-[3-(3-hydroxy-2-piperidinyl)-2-oxopropyl]-4(3H)-quinazolinone]","apoptosis (Annexin V+ PI−) of Jurkat T cells, in words",Jurkat T cells,caused significant apoptosis
same,time post activation at which maintenance of STAT3 phosphorylation begins to decrease,"STAT3 phosphorylation; 5 or 10 nM HF, TGFβ plus IL-6",around 12 hours
same,"effect on early STAT3 activation, in words",STAT3 phosphorylation; first 6 hours of Th17 differentiation,did not interfere with STAT3 activation during the first 6 hours
same,"eIF2α phosphorylation and AAR-associated gene expression in splenocytes, in words",[1],rapidly activates eIF2α phosphorylation and AAR-associated gene expression
same,"toxic effects in tadpoles, in words",[2],does not have detectable toxic effects
same,"NFkB activation and T-cell secretion of cytokines, in words","[3]; 80 nM HF, crude preparation of primary T-cells (Leiba et al.)",broadly suppress NFkB activation and T-cell secretion of cytokines
same,IC50,"[3]; Lieba et al., read-out: concentration for 50% inhibition of cytokine secretion, NF-kB activation and p38 phosphorylation",20 to 40 nM
same,concentration range for inhibition of fibrosis in vitro,fibrosis,1 to 200 nM
